Test results reported in ChEMBL document CHEMBL1201862, “PubChem BioAssay data set” (2004).
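Values below derive from 48-hour exposures of cells grown in 96-well plates, with endpoints linearly interpolated between the two concentrations bracketing the appropriate inhibition level. Here, GI50 denotes the concentration required for 50% inhibition of growth.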 Active and inactive are the calls of the source. Cut-off read from the data, not from the text of the source: active = GI50 up to about 1.1 µM and inactive = higher.

Legend:
Experiment in all cases: NCI-60 cell line screen, 48 h
[1] = tested on: SNB-19
[2] = tested on: OVCAR-8
[3] = tested on: SF-295
[4] = tested on: 786-0
[5] = tested on: SNB-75
[6] = tested on: UACC-257
[7] = tested on: NCI-H23
[8] = tested on: M14
[9] = tested on: HT-29
[10] = tested on: HCT-15
[11] = tested on: NCI-H226
[12] = tested on: SN12C
[13] = tested on: A498
[14] = tested on: HCC 2998
[15] = tested on: TK-10
[16] = tested on: LOX IMVI
[17] = tested on: NCI-H522

CSCSCC(CO)NC(=O)/C=C/c1c(C)nc(O)nc1O (stereo not drawn)
GI50 [1]: 28.8 µM (inactive) | GI50 [2]: > 100 µM (inactive) | GI50 [3]: > 100 µM (inactive) | GI50 [4]: > 100 µM (inactive) | GI50 [5]: > 100 µM (inactive) | GI50 [6]: > 100 µM (inactive) | GI50 [7]: > 100 µM (inactive) | GI50 [8]: > 100 µM (inactive) | GI50 [9]: > 100 µM (inactive) | GI50 [10]: > 100 µM | GI50 [11]: > 100 µM (inactive) | GI50 [12]: > 100 µM (inactive) | GI50 [13]: > 100 µM (inactive) | GI50 [14]: > 100 µM (inactive) | GI50 [15]: > 100 µM (inactive) | GI50 [16]: > 100 µM (inactive)

Cc1ccc(C)c(N2C(=O)C(=O)C(c3nc4ccccc4o3)/C(=N/N)C2=O)c1 (stereo not drawn)
GI50 [1]: > 100 µM (inactive) | GI50 [17]: > 100 µM (inactive) | GI50 [2]: > 100 µM (inactive) | GI50 [3]: > 100 µM (inactive) | GI50 [4]: > 100 µM (inactive) | GI50 [5]: 95.7 µM (inactive) | GI50 [6]: > 100 µM (inactive) | GI50 [7]: > 100 µM (inactive) | GI50 [8]: > 100 µM (inactive) | GI50 [9]: > 100 µM (inactive) | GI50 [10]: > 100 µM | GI50 [11]: > 100 µM (inactive) | GI50 [12]: > 100 µM (inactive) | GI50 [13]: > 100 µM (inactive) | GI50 [14]: > 100 µM (inactive) | GI50 [15]: > 100 µM (inactive)

C/C=C(/I)CBr
GI50 [1]: 23.7 µM (inactive) | GI50 [17]: 2.03 µM (inactive) | GI50 [2]: 19.4 µM (inactive) | GI50 [4]: 17 µM (inactive) | GI50 [5]: > 10 µM (inactive) | GI50 [7]: 16.7 µM (inactive) | GI50 [8]: 13.8 µM (inactive) | GI50 [10]: 18.2 µM | GI50 [11]: 20.6 µM (inactive) | GI50 [12]: 17.2 µM (inactive) | GI50 [13]: > 10 µM (inactive) | GI50 [14]: 15.9 µM (inactive) | GI50 [15]: > 10 µM (inactive) | GI50 [16]: 16.2 µM (inactive)

COc1ccc(C(=O)C(c2ccc(OC)cc2)C2(O)C(=O)Nc3c(Cl)cc(Cl)cc32)cc1 (stereo not drawn)
GI50 [1]: 23.8 µM (inactive) | GI50 [17]: 18.2 µM (inactive) | GI50 [2]: 23.7 µM (inactive) | GI50 [3]: 19.3 µM (inactive) | GI50 [4]: 14.3 µM (inactive) | GI50 [5]: 22.9 µM (inactive) | GI50 [6]: 17.3 µM (inactive) | GI50 [7]: 19.5 µM (inactive) | GI50 [8]: 16.9 µM (inactive) | GI50 [9]: 19.4 µM (inactive) | GI50 [10]: 21.5 µM | GI50 [11]: 18.4 µM (inactive) | GI50 [12]: 18.7 µM (inactive) | GI50 [14]: > 10 µM (inactive) | GI50 [15]: 22.5 µM (inactive) | GI50 [16]: 19.3 µM (inactive)

O=C(c1ccc(Cl)cc1)c1ccc(OCC(=O)N2CCN(c3ccccc3)CC2)cc1
GI50 [1]: > 100 µM (inactive) | GI50 [2]: > 100 µM (inactive) | GI50 [3]: > 100 µM (inactive) | GI50 [4]: > 100 µM (inactive) | GI50 [5]: > 100 µM (inactive) | GI50 [6]: 61 µM (inactive) | GI50 [7]: 53.7 µM (inactive) | GI50 [8]: > 100 µM (inactive) | GI50 [9]: > 100 µM (inactive) | GI50 [10]: > 100 µM | GI50 [11]: > 100 µM (inactive) | GI50 [12]: > 100 µM (inactive) | GI50 [13]: 32.1 µM (inactive) | GI50 [14]: > 100 µM (inactive) | GI50 [15]: > 100 µM (inactive) | GI50 [16]: > 100 µM (inactive)

CC1=NN=C(NCCN(C)C)C/C1=C/c1ccccc1Cl
GI50 [1]: > 100 µM (inactive) | GI50 [2]: > 100 µM (inactive) | GI50 [3]: > 100 µM (inactive) | GI50 [4]: > 100 µM (inactive) | GI50 [5]: 20 µM (inactive) | GI50 [6]: 23.5 µM (inactive) | GI50 [7]: > 100 µM (inactive) | GI50 [8]: 39.4 µM (inactive) | GI50 [9]: 45.1 µM (inactive) | GI50 [10]: > 100 µM | GI50 [12]: > 100 µM (inactive) | GI50 [13]: > 100 µM (inactive) | GI50 [14]: > 100 µM (inactive) | GI50 [15]: > 100 µM (inactive) | GI50 [16]: 90.6 µM (inactive)

O=C1C=C(c2c(O)ccc3ccccc23)c2cc(O)ccc2C1=O
GI50 [1]: 17.5 µM (inactive) | GI50 [2]: 11.4 µM (inactive) | GI50 [3]: 18.5 µM (inactive) | GI50 [4]: 18.7 µM (inactive) | GI50 [5]: 25.4 µM (inactive) | GI50 [6]: 17.9 µM (inactive) | GI50 [7]: 15.1 µM (inactive) | GI50 [8]: 16.4 µM (inactive) | GI50 [9]: 25.3 µM (inactive) | GI50 [10]: 16.7 µM | GI50 [11]: 20.9 µM (inactive) | GI50 [12]: 18.2 µM (inactive) | GI50 [14]: 18.6 µM (inactive) | GI50 [15]: 20.9 µM (inactive) | GI50 [16]: 11.5 µM (inactive)
